Results from ChEMBL document CHEMBL1156829 (Proc Natl Acad Sci U S A, 2008).

Assays:
[1] = test system: Plasmodium falciparum; assay: NOVARTIS: Inhibition of Plasmodium falciparum 3D7 (drug-susceptible) proliferation in erythrocyte-based infection assay; assay type: functional, organism-based; conditions: Plasmodium falciparum, 3D7
[2] = test system: Plasmodium falciparum; assay: NOVARTIS: Inhibition of Plasmodium falciparum W2 (drug-resistant) proliferation in erythrocyte-based infection assay; assay type: functional, organism-based; conditions: Plasmodium falciparum, W2; read-out: EC50
[3] = NOVARTIS: Cytotoxicity against human hepatocellular carcinoma cell line (Huh7); assay type: toxicity, cell-based, Huh-7; conditions: Huh7 cells (hepatocellular carcinoma cell line)

Structure (SMILES): CCN1CCN(c2cc(C)c3cc(NC(=O)c4cc(=O)c5ccccc5o4)ccc3n2)CC1
- EC50 [1]: 498 nM
- EC50 [2]: 386 nM
- CC50 [3]: > 10000 nM

Structure (SMILES): CN(C)CCNc1cc(-c2ccccc2)nc2ccccc12
- EC50 [1]: 692 nM
- EC50 [2]: 819 nM
- CC50 [3]: 21200 nM

Structure (SMILES): O=C(Nc1cc(C(F)(F)F)cc(C(F)(F)F)c1)Nc1ccc(Cl)c(Cl)c1
- EC50 [1]: 814 nM
- EC50 [2]: 927 nM
- CC50 [3]: 6570 nM

Structure (SMILES): O=C(O)CSc1nc2c(ccc3nsnc32)[nH]1
- EC50 [1]: > 964 nM
- EC50 [2]: > 1440 nM
- CC50 [3]: > 10000 nM

Structure (SMILES): CCN1CCN(C/C=C/c2ccccc2[N+](=O)[O-])CC1
- EC50 [1]: > 1250 nM
- EC50 [2]: 1410 nM
- CC50 [3]: > 10000 nM

Structure (SMILES): CC(=NNC(=S)NN)c1ccccn1
- EC50 [1]: 1370 nM
- EC50 [2]: 386 nM
- CC50 [3]: > 10000 nM

Structure (SMILES): COc1ccc(Nc2nc(NN=Cc3cccc(I)c3)nc(Nc3ccc([N+](=O)[O-])cc3)n2)cc1
- EC50 [1]: 305 nM
- EC50 [2]: 454 nM
- CC50 [3]: > 11700 nM

Structure (SMILES): COc1cc(NC(=O)Cc2ccccc2OC)cc(OC)c1
- EC50 [1]: > 1690 nM
- EC50 [2]: > 386 nM
- CC50 [3]: > 10000 nM

Structure (SMILES): Cn1nc(C(F)(F)F)c(C(=O)Nc2cccc(C(F)(F)F)c2)c1SCc1ccc(Cl)cc1
- EC50 [1]: 1010 nM
- EC50 [2]: 1200 nM
- CC50 [3]: 31300 nM

Structure (SMILES): COc1cc(CNCCCN(C)C)ccc1OCc1ccc(F)cc1Cl
- EC50 [1]: 92 nM
- EC50 [2]: 159 nM
- CC50 [3]: 4160 nM

Structure (SMILES): CN(CCCNc1ccnc2cc(Cl)ccc12)C(=O)c1ccccc1
- EC50 [1]: 723 nM
- EC50 [2]: 391 nM
- CC50 [3]: > 10000 nM

Structure (SMILES): O=C1CN(C(=O)CCC2CCCCC2)C(c2ccccc2)c2cc(F)ccc2N1 (stereo not given)
- EC50 [1]: 1070 nM
- EC50 [2]: 1300 nM
- CC50 [3]: 33200 nM

Structure (SMILES): CCN(CC)C(=O)COc1ccccc1CNCc1ccccc1
- EC50 [1]: > 1250 nM
- EC50 [2]: 1440 nM
- CC50 [3]: > 10000 nM

Structure (SMILES): NS(=O)(=O)c1ccc(N/C=C/C(=O)c2ccc(Cl)s2)cc1
- EC50 [1]: 1830 nM
- EC50 [2]: > 1250 nM
- CC50 [3]: > 8690 nM

Structure (SMILES): CCOC(=O)c1c(Cl)nnc(-c2ccccc2)c1-c1ccccc1
- EC50 [1]: 797 nM
- EC50 [2]: > 1440 nM
- CC50 [3]: > 10000 nM

Structure (SMILES): COCOc1ccc(-c2nc(-c3ccncc3)cnc2N)cc1
- EC50 [1]: 1430 nM
- EC50 [2]: > 1440 nM
- CC50 [3]: > 10000 nM

Structure (SMILES): COc1ccc(Nc2nc(NCc3ccco3)c3ccccc3n2)cc1
- EC50 [1]: 253 nM
- EC50 [2]: 421 nM
- CC50 [3]: 2970 nM

Structure (SMILES): O=C(c1nccs1)C1CCN(C(=O)c2cscn2)CC1
- EC50 [1]: > 1250 nM
- EC50 [2]: 1390 nM
- CC50 [3]: > 10000 nM

Structure (SMILES): Cc1ccccc1Cn1cc(NC(=O)c2cc(-c3cccs3)on2)cn1
- EC50 [1]: > 1250 nM
- EC50 [2]: 1420 nM
- CC50 [3]: > 10000 nM

Structure (SMILES): Cc1cc(S(=O)(=O)N2CCN(Cc3ccccc3)CC2)ccc1-n1cnnn1
- EC50 [1]: 732 nM
- EC50 [2]: 1410 nM
- CC50 [3]: > 10000 nM

Structure (SMILES): CCCC(C(=O)NC(C)(C)C)N1C(=O)c2cc(NC(C)=O)ccc2NC(=O)[C@@H]1c1ccccc1 (stereo not given in full)
- EC50 [1]: > 65.6 nM
- EC50 [2]: > 790 nM
- CC50 [3]: 5450 nM

Structure (SMILES): Cc1ccc(CN2CCN(Cc3ccccc3)CC2)o1
- EC50 [1]: > 1250 nM
- EC50 [2]: 1300 nM
- CC50 [3]: > 8970 nM

Structure (SMILES): O=C(CCCn1c(SCc2ccccc2F)nc2ccccc2c1=O)N1CCCC1
- EC50 [1]: 1060 nM
- EC50 [2]: > 1440 nM
- CC50 [3]: > 10000 nM

Structure (SMILES): CCCCCCN(C(=O)c1ccc2c(c1)OCO2)C(CC)c1nc2ccccc2c(=O)n1-c1ccccc1OC (stereo not given)
- EC50 [1]: 862 nM
- EC50 [2]: 647 nM
- CC50 [3]: > 4510 nM

Structure (SMILES): COc1cc(NC(C)CCCN(Cc2ccc(Cl)cc2)C(=O)Nc2ccc(Br)cc2)c2ncccc2c1 (stereo not given)
- EC50 [1]: > 1250 nM
- EC50 [2]: 788 nM
- CC50 [3]: > 5600 nM

Structure (SMILES): Cc1cccc(CSc2nnc(C(Cc3ccccc3)NC(=O)C3CCCCC3)n2-c2ccc(Cl)cc2Cl)c1 (stereo not given)
- EC50 [1]: 1240 nM
- EC50 [2]: 1430 nM
- CC50 [3]: > 10000 nM

Structure (SMILES): CCNC(=O)N1CCN(CCN(C/C=C/c2ccccc2OC)C(=O)CC(C)CC(C)(C)C)CC1 (stereo not given)
- EC50 [1]: > 1250 nM
- EC50 [2]: 1430 nM
- CC50 [3]: > 10000 nM

Structure (SMILES): Cc1ccccc1/C=C1/SC(=Nc2ccccc2)NC1=O
- EC50 [1]: > 528 nM
- EC50 [2]: > 1420 nM
- CC50 [3]: > 10000 nM

Structure (SMILES): O=C(NCC1CCCO1)c1cnc(N2CCN(c3ncccn3)CC2)c2ccccc12 (stereo not given)
- EC50 [1]: > 637 nM
- EC50 [2]: > 1400 nM
- CC50 [3]: > 10000 nM

Structure (SMILES): CC(=O)Nc1ccc(S(=O)(=O)Nc2ccccc2[N+](=O)[O-])cc1
- EC50 [1]: 677 nM
- EC50 [2]: 1400 nM
- CC50 [3]: > 10000 nM

Structure (SMILES): CCc1cccc(NS(=O)(=O)c2ccc3[nH]c(=O)c(=O)[nH]c3c2)c1
- EC50 [1]: > 1040 nM
- EC50 [2]: > 1450 nM
- CC50 [3]: > 10000 nM

Structure (SMILES): Cc1oc2c(c1C(=O)NCCCn1ccnc1)C(=O)c1ccccc1C2=O
- EC50 [1]: 90.4 nM
- EC50 [2]: 39.1 nM
- CC50 [3]: 270 nM

Structure (SMILES): O=C(Nc1ccc(F)c(F)c1)c1cc2cc(C3(O)CCN(Cc4ccccc4F)CC3)ccc2o1
- EC50 [1]: 1500 nM
- EC50 [2]: 1850 nM
- CC50 [3]: 12800 nM

Structure (SMILES): CCNc1nc(NC(C)C)nc(NC(N)NOC)n1 (stereo not given)
- EC50 [1]: > 1150 nM
- EC50 [2]: > 1400 nM
- CC50 [3]: > 10000 nM

Structure (SMILES): Cc1noc(C)c1C(=O)N1CCC(O)(c2ccccn2)CC1
- EC50 [1]: > 563 nM
- EC50 [2]: > 1400 nM
- CC50 [3]: > 10000 nM

Structure (SMILES): C1=C(c2ccc(CN3CCCCC3)cc2)N2CCN=C2c2ccccc21
- EC50 [1]: 278 nM
- EC50 [2]: 579 nM
- CC50 [3]: 4140 nM

Structure (SMILES): Cc1ccc(C)c(Nc2nc(NCc3ccco3)c3ccccc3n2)c1
- EC50 [1]: 298 nM
- EC50 [2]: 844 nM
- CC50 [3]: 5940 nM

Structure (SMILES): CC(=O)N1CC(=NNC(=O)C(C)Nc2c(C)cccc2C)c2ccccc21 (stereo not given)
- EC50 [1]: 1960 nM
- EC50 [2]: 1420 nM
- CC50 [3]: > 10000 nM

Structure (SMILES): Cc1ccc(Nc2nc(NN=Cc3ccc(-c4ccc([N+](=O)[O-])cc4)o3)nc(Nc3ccccc3)n2)c(C)c1
- EC50 [1]: > 824 nM
- EC50 [2]: 387 nM
- CC50 [3]: > 10000 nM

Structure (SMILES): CCOc1ccc(S(=O)(=O)c2cn(Cc3ccccc3C)c3ccc(OC)cc3c2=O)cc1
- EC50 [1]: 6270 nM
- EC50 [2]: 3860 nM
- CC50 [3]: > 100000 nM

Structure (SMILES): c1ccc2cc3c(NCCCN4CCOCC4)ccnc3cc2c1
- EC50 [1]: 44.3 nM
- EC50 [2]: 83.5 nM
- CC50 [3]: 598 nM

Structure (SMILES): CC[n+]1c(C=Cc2ccc(OC)cc2)ccc2ccccc21
- EC50 [1]: 690 nM
- EC50 [2]: 1480 nM
- CC50 [3]: 10300 nM

Structure (SMILES): C[n+]1c(/C=C/c2ccc(Cl)c(Cl)c2)ccc2ccccc21
- EC50 [1]: 295 nM
- EC50 [2]: 390 nM
- CC50 [3]: > 10000 nM

Structure (SMILES): O=C(NCCc1ccc(Cl)cc1)C1CCCN(c2nnc(N3CCCC3=O)s2)C1 (stereo not given)
- EC50 [1]: > 12500 nM
- EC50 [2]: 3890 nM
- CC50 [3]: > 100000 nM

Structure (SMILES): Oc1ccc(-c2ccc(F)cc2)cc1CNCCCn1ccnc1
- EC50 [1]: 1060 nM
- EC50 [2]: 1430 nM
- CC50 [3]: > 10000 nM

Structure (SMILES): CC[n+]1c(/C=C/C=C2\N(C)c3ccccc3C2(C)C)n(-c2ccccc2)c2ccc(C)cc21
- EC50 [1]: 1530 nM
- EC50 [2]: 1400 nM
- CC50 [3]: > 10000 nM

Structure (SMILES): Cc1ccc(N2C(=O)C3C(C2=O)C2(c4ccccc4)C(=O)C3(c3ccccc3)C(c3ccccc3)=C2c2ccccc2)cc1Br (stereo not given)
- EC50 [1]: 1440 nM
- EC50 [2]: 1410 nM
- CC50 [3]: > 10000 nM

Structure (SMILES): OCc1nc2ccccc2n1Cc1ccccc1F
- EC50 [1]: > 1640 nM
- EC50 [2]: 1450 nM
- CC50 [3]: > 10000 nM

Structure (SMILES): CCCCCN(C(=O)c1ccc(Br)cc1)C(CC)c1nc2ccccc2c(=O)n1-c1ccccc1OC (stereo not given)
- EC50 [1]: 1020 nM
- EC50 [2]: 633 nM
- CC50 [3]: > 4400 nM

Structure (SMILES): CCOC(=O)c1c(NC(=O)CSc2nnc(CNC(=O)c3ccc(C)c(C)c3)n2C2CCCCC2)sc2c1CCC2
- EC50 [1]: > 1090 nM
- EC50 [2]: > 1400 nM
- CC50 [3]: > 10000 nM

Structure (SMILES): CN1c2ccccc2N(C)C1c1ccc2c(c1)OCO2
- EC50 [1]: 1120 nM
- EC50 [2]: > 1410 nM
- CC50 [3]: > 10000 nM

Structure (SMILES): Cc1c(Cl)cccc1NC(=O)C1C(C(=O)O)C2C=CC1C21CC1 (stereo not given)
- EC50 [1]: 1250 nM
- EC50 [2]: 1400 nM
- CC50 [3]: > 10000 nM

Structure (SMILES): c1ccc(-c2nc(Nc3ccncc3)cc(-c3cccnc3)n2)cc1
- EC50 [1]: 884 nM
- EC50 [2]: 1440 nM
- CC50 [3]: > 10000 nM

Structure (SMILES): N#CC(=Cc1ccccc1OCc1ccc(Cl)cc1Cl)c1nc2ccccc2[nH]1
- EC50 [1]: 1130 nM
- EC50 [2]: 717 nM
- CC50 [3]: 5050 nM

Structure (SMILES): COCCCNC(=O)c1c(C)nc2scc(C)n12
- EC50 [1]: > 1080 nM
- EC50 [2]: > 1450 nM
- CC50 [3]: > 10000 nM
